Tests used:
[1] = system: WEHI/3B myelomonocytic leukemia cell line; experiment: WEHI/3B murine model of AML, tumor burden at tissue level (Example 12); type: in vivo, mice
Method: WEHI/3B, a macrophage-like myelomonocytic leukemia cell line established from inbred BALB/c mice, was used. BALB/cJ mice were inoculated with 1×10^6 Wehi-3 cells.
Mice were sacrificed at pre-determined time points as specified before or upon signs of illness. Each animal was weighed before blood was sampled, and visually examined for tumor development. Spleens were isolated and weighed. Spleens and tissue samples from liver were fixed in 10% neutral formalin solution for 48 hours. Osseous samples (thoracic spine, sternum, pelvis, and stifle joint) were decalcified in Decalcifier System I (Leica Microsystems, Inc.) for 48 h after fixation. All tissues were processed by routine methods and embedded in paraffin Sections of 4 or 5 μm were stained with hematoxylin and eosin (H&E) according to standard procedures.
Histomorphometric analyses were performed on vertebral column specimens collected from 2 months old mice using undecalcified sections using the osteomeasure analysis system (Osteometrics). Lumbar vertebrae were dissected, fixed for 24 hours in 10% formalin, dehydrated in graded ethanol series, and embedded in methyl methacrylate resin according to standard protocols (Chappard et al. (1987); Parfitt et al. (1987)).
Bone formation rate (BFR) was analyzed by the calcein double-labeling method. Calcein (Sigma) was dissolved in calcein buffer (0.15 M NaCl, 2% NaHCO3) and administered by an intraperitoneal injection of 25 μg/g body weight, 6 days and 2 days before sacrificing the animals. In experiments evaluating survival rates of animals, bone formation rate was not calculated due to the unknown time of death. Unstained 4-μm sections were used for BFR measurements.
For the analysis of parameters of osteoblast and osteoclast, 4-μm sections were stained with toluidine blue and tartrate-resistant acid phosphatase (TRAP), respectively. Type I collagen content and bone volume over trabecular volume (BV/TV) were analyzed using 7-μm sections by Von Gieson and Von Kossa staining […] respectively in undecalcified sections. Images were taken using a 10× objective on a Leica microscope outfitted with camera. Six to ten animals were analyzed for each group.
Total RNA was isolated from tissues or cultured cells using Trizol, according to the manufacturer's protocol (Invitrogen). Total RNA (2 μg) was treated with DNAse I (Invitrogen), and reverse transcribed at 42° C. with SuperScript II (Invitrogen). The expression of all the genes was measured by real-time quantitative PCR with the SYBR Green Master Mix (Bio-Rad) using β actin or 18s as endogenous control.
BALB/cJ mice purchased from Jackson Laboratory and injected with WEHI/3B, as described in Example 2, were used.
Mice were treated as described in Example 9 and classified as: • Mice with no leukemia treated with a vehicle, i.e., non-leukemic-vehicle-treated (“WT”); • Mice with no leukemia treated with LP-533401, i.e., non-leukemic-LP-533401-treated (“NL-LP”); • Mice with leukemia treated with a vehicle, i.e., leukemic-vehicle-treated (“Leuk-veh”); and • Mice with leukemia treated with LP-533401, i.e., leukemic-LP 533410-treated (“Leuk-LP”).
All mice were sacrificed after 2 weeks for the following assessments: • Serum serotonin levels as measured in Example 9; • Body weight as described in Example 2 • Spleen weight as described in Example 2; • Histological analysis of the femur, spleen and liver as described in Example 2; • Trabecular Bone Volume (Bv/TV) as described in Example 3; • and • Gene Expression analysis by PCR as described in Example 3. Results

[2] = in vivo; cited from earlier work
[3] = system: EL4 cells; experiment: EL4 leukemia mouse model, all mice sacrificed at day 15 (Example 10); type: in vivo
Method: Mice were sacrificed at pre-determined time points as specified before or upon signs of illness. Each animal was weighed before blood was sampled, and visually examined for tumor development. Spleens were isolated and weighed. Spleens and tissue samples from liver were fixed in 10% neutral formalin solution for 48 hours. Osseous samples (thoracic spine, sternum, pelvis, and stifle joint) were decalcified in Decalcifier System I (Leica Microsystems, Inc.) for 48 h after fixation. All tissues were processed by routine methods and embedded in paraffin Sections of 4 or 5 μm were stained with hematoxylin and eosin (H&E) according to standard procedures. Luciferase intensity was measured by plating 4.5 million bone marrow cells into 6-well plates. Luciferin was added at a final concentration of 150 μg/mL and luciferase activity was measured at a luminometer. Mice were treated orally with LP-533401 (25 or 200 mg per kg of body weight per day) or vehicle. Treatments started 15 days before malignant cell injections in all sets of experiments, and continued for the indicated periods of time. LP-533401 was dissolved in polyethylene glycol (PEG) and 5% dextrose or 2.5% glucose (Sigma), and given daily by oral gavage. Mice treated with vehicle were administered, in the same way as LP533401, a solution of PEG and 5% dextrose or 2.5% glucose, daily, by oral gavage. The same mice and techniques used in Example 9 were used in this Example, except all of the mice were sacrificed at day 15 following EL4 cell injection

[4] = among 14 mice treated (WEHI/3B)

Nc1nc(OC(c2ccc(-c3cccc(F)c3)cc2)C(F)(F)F)cc(-c2ccc(C[C@H](N)C(=O)O)cc2)n1 (stereo partly shown) [LP-533401]
anemia observed in leukemic mice ([1]; WEHI/3B): inhibited
leukemia infiltration in the liver and spleen ([1]; WEHI/3B): limited leukemia infiltration in the liver and spleen
leukemia-caused decrease in trabecular bone volume, osteoblast numbers and bone formation rate ([1]; WEHI/3B): prevented the decrease
leukemic mice in which megakaryocyte numbers returned to normal ([1]; WEHI/3B): 70%
leukemic mice with normal myeloid:erythroid ratio ([1]; WEHI/3B): 50%
number of leukemia blasts (histology) ([1]; WEHI/3B): reduced number of leukemia blasts
osteoclast numbers ([1]; WEHI/3B): not affected
mice with less than 5% marrow blasts [1, 4]: 71%
number of mice with less than 5% marrow blasts [1, 4]: 10
expression of osteoblast differentiating genes (osteocalcin, osterix, Runx2, alkaline phosphatase, collagen 1a1) ([1]; femur of leukemic mice (WEHI/3B), PCR): normalize the expression
cyclin D1 and D2 expression in bone (osteoblast proliferation) ([1]; leukemic mice (WEHI/3B)): increase in cyclin D1 and D2 expression
enlargement of the spleen (spleen weight) ([1]; leukemic mice (WEHI/3B)): alleviated
splenic red pulp ([1]; leukemic mice (WEHI/3B)): normal
animals with a blast percentage of 20% or more in the bone marrow ([1]; leukemic mice (WEHI/3B), 2 weeks): 28%
body weight ([1]; leukemic vs non-leukemic animals (WEHI/3B)): weight loss was not observed
crossing of the blood-brain barrier [2]: did not cross the blood-brain barrier
leukemic infiltration in the marrow (histology) ([3]; day 15): reduced leukemic infiltration
leukemic mice with 20 to 40% blasts in the bone marrow ([3]; day 15): 40%
leukemic mice with increased megakaryocyte number ([3]; day 15): 20%
leukemic mice with less than 20% of blasts in the bone marrow ([3]; day 15): 40%
leukemic mice with more than 80% blasts in the bone marrow ([3]; day 15): 20%
leukemia-induced changes in WBCs, monocytes, neutrophils and lymphocytes ([3]; day 15, leukemic mice): all prevented
liver leukemic involvement ([3]; day 15, leukemic mice): normal or only small size focal infiltrates
myeloid hyperplasia ([3]; day 15, leukemic mice): Mild myeloid hyperplasia
prevalence of immature lymphoblastic cells in the blood compared to healthy controls ([3]; day 15, leukemic mice): did not show an increase
EL4 tumor burden ([3]; day 15, whole body and bone marrow): decreased in whole body and in the bone marrow
leukemia-caused decrease in bone volume, osteoblast numbers and bone formation rate ([3]; day 15 after EL4 injection): ameliorated
osteoclast numbers ([3]; day 15 after EL4 injection): Neither injection with EL4 cells nor treatment with LP-533401 affected osteoclast numbers
